Data on four compounds can be found in patent US9150548B2, “Combinations of AKT inhibitor compounds and vemurafenib, and methods of use” (Genentech, Inc., priority 2011, dated 2015).

In one test the test system is PTEN null line. Description: CellTiter-Glo combination assay with docetaxel (FIG. 19). Type of test: cell-based. From the text: Viable cells are reflected in relative luminescence units (RLU).
The test system of test [1] is LuCap35V primary human prostate tumor model. Description: In vivo tumor xenograft efficacy, LuCap35V (FIG. 1). Set-up: species or system mice. The text has this:
FIG. 1 illustrates results for the compound of Example 2 and docetaxel in LuCap35V primary prostate tumors. FIG. 2 illustrates results for the compound of Example 2 dosed intermittently either PO or IP and docetaxel in PC3-NCI prostate tumors. FIG. 3 illustrates results for the compound of Example 2 dosed PO and docetaxel in PC3-NCI prostate tumors. FIG. 4 illustrates results for the compound of Example 2 dosed IP intermittently and docetaxel in MCF7-neo/HER2 tumors. FIG. 5 illustrates results for the compound of Example 2 dosed PO and docetaxel in MCF7-neo/HER2 breast tumors. FIG. 6 illustrates results for the compound of Example 2 and docetaxel in MAXF401 mammary tumors. FIG. 7 illustrates results for the compound of Example 2 and docetaxel in SKOV3 ovarian tumors. FIG. 8 illustrates results for the compound of Example 2 and cisplatnin in SKOV3 ovarian tumors. FIG. 9 illustrates results for the compound of Example 2 dosed PO and carboplatin in IGROV-1 ovarian tumors. FIG. 10 illustrates results for the compound of Example 2 and GDC-0973 at 2.5 mg/kg in H2122 NCI-NSCL tumors. FIG. 11 illustrates results for the compound of Example 2 and GDC-0973 at 5.0 mg/kg in NCI-H2122 NSCLC tumors. FIG. 12 illustrates results for the compound of Example 2 and GDC-0973 at 7.5 mg/kg in NCI-H2122 NSCLC tumors. FIG. 13 illustrates results for the compound of Example 2 and MDV3100 in LuCap35V tumors.

For test [2], the system named is prostate specific antigen serum levels. The following applies: after a month of taking the medicine; cited from earlier work.
For test [3] the following is noted: active metabolite vs irinotecan itself; cited from earlier work.

For the compound `CC(C)NC[C@@H](C(=O)N1CCN(c2ncnc3c2[C@H](C)C[C@H]3O)CC1)c1ccc(Cl)cc1` [Example 2, (S)-2-(4-chlorophenyl)-1-(4-((5R,7R)-7-hydroxy-5-methyl-6,7-dihydro-5H-cyclopenta[d]pyrimidin-4-yl)piperazin-1-yl)-3-(isopropylamino)propan-1-one], the single agent response entry in the test on PTEN null line is recorded as “minimal single agent response”. The “tumor response (FIG. 1)” value in test [1] is on record as “tumor stasis”. Turning to `CNC(=O)c1ccc(N2C(=S)N(c3ccc(C#N)c(C(F)(F)F)c3)C(=O)C2(C)C)cc1F` [MDV3100, 4-(3-(4-cyano-3-(trifluoromethyl)phenyl)-5,5-dimethyl-4-oxo-2-thioxoimidazolidin-1-yl)-2-fluoro-N-methylbenzamide], in test [2], the “decrease in prostate specific antigen serum levels” value is listed as at most 89%.

For `CCc1c2c(nc3ccc(O)cc13)-c1cc3c(c(=O)n1C2)COC(=O)[C@]3(O)CC` [SN-38, 7-ethyl-10-hydroxy-camptothecin], the “activity relative to irinotecan” value in test [3] is 200 times. Take `CC(=O)O[C@@]12CO[C@@H]1C[C@H](O)[C@@]1(C)C(=O)[C@H](O)C3=C(C)[C@@H](OC(=O)[C@H](O)[C@@H](NC(=O)OC(C)(C)C)c4ccccc4)C[C@@](O)([C@@H](OC(=O)c4ccccc4)[C@H]21)C3(C)C` [docetaxel, (2R,3S)—N-carboxy-3-phenylisoserine, N-tert-butyl ester, 13-ester with 5, 20-epoxy-1,2,4,7,10,13-hexahydroxytax-11-en-9-one 4-acetate 2-benzoate, trihydrate]: the “tumor response (FIG. 1)” value in test [1] is recorded as “tumor stasis”.
